The values below come from US20120010229A1, “THERAPEUTIC REGIMENS FOR HEDGEHOG-ASSOCIATED CANCERS” (priority 2010, published 2012).

The IC50 is the concentration at which inhibition is half-maximal.

Counter-ions that a name gives are not always drawn. A value given as a limit tells only on which side of the number the result lay.

Data set [1] relates to Sonic Hedgehog (SHH) ligand expression in bladder cancer cells. As to the kind of experiment: Sonic Hedgehog ligand expression in bladder cancer cells after chemotherapy. Particulars: over time after chemotherapy. The format is cell-based, human. The text has this: Similar results showing increases in Hh ligand expression in response to chemotherapy have been found in other tumor cells. For example, chemotherapy increases in Sonic Hedgehog (SHH) ligand expression in bladder cancer cells are depicted in FIGS. 4A-4D.

For data set [2], the target named is Pgp (Homo sapiens, UniProt P08183). The conditions noted are these: cited from earlier work.
Pgp, sequence (P08183 whole entry): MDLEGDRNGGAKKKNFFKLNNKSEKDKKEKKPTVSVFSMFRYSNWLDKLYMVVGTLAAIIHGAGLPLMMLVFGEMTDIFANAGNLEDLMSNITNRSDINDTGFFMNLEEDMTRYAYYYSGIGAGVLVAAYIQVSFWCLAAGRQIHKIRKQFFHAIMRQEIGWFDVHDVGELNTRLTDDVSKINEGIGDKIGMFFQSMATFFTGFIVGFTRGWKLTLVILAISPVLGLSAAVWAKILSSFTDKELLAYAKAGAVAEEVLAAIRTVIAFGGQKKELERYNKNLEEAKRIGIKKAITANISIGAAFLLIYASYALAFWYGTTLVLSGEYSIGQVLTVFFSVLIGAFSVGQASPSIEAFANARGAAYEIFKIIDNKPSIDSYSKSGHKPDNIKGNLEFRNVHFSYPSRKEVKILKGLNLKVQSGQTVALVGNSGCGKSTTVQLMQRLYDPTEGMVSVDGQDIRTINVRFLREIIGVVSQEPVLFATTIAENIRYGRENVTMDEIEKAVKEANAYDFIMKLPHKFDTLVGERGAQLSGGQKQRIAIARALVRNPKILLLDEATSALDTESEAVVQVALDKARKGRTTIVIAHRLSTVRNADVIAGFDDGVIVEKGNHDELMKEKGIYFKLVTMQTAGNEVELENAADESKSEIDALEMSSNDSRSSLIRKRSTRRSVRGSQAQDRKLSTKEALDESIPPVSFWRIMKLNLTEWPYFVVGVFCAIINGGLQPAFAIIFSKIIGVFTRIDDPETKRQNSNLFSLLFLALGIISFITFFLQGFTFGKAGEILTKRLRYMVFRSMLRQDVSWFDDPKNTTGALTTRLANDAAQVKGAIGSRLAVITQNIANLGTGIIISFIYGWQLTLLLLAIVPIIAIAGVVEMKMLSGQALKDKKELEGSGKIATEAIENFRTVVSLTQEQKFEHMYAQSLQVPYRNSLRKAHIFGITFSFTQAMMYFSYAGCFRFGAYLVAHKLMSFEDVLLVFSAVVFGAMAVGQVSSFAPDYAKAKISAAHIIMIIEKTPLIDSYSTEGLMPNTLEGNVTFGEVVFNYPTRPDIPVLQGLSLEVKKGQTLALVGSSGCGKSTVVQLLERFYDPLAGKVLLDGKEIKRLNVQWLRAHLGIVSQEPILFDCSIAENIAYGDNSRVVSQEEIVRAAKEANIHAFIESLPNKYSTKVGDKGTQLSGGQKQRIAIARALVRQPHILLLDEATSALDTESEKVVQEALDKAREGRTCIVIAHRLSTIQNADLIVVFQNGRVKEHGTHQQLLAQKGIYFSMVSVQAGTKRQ
The subject of data set [3] is hedgehog pathway. As to the kind of experiment: C3H10T1/2 alkaline phosphatase assay (Shh-dependent osteoblast differentiation). The conditions noted are these: Mus musculus, C3H 10T1/2; sonic hedgehog 250 ng/ml; AP normalized to total protein; read-out: IC50, antagonist of the hedgehog pathway (AP activity). The format is cell-based. The text has this: Cancer cell killing by inhibition of a component of the hedgehog pathway can be ascertained using the following assay. C3H10T1/2 cells differentiate into osteoblasts when contacted with the sonic hedgehog peptide (Shh-N). Upon differentiation, these osteoblasts produce high levels of alkaline phosphatase (AP) which can be measured in an enzymatic assay (Nakamura et al., 1997 BBRC 237: 465). Compounds that block the differentiation of C3H10T1/2 into osteoblasts (a Shh dependent event) can therefore be identified by a reduction in AP production (van der Horst et al., 2003 Bone 33: 899). The assay details are described below. Additional assays to ascertain the activity of hedgehog inhibitors, including IPI-926, are described in US 2009/0181997 by Grayzel et al.; U.S. Ser. No. 61/327,373 and 61/331,365, filed on Apr. 23, 2010 and May 4, 2010, respectively; the entire contents of the aforesaid applications are incorporated herein by reference. […]
C3H10T1/2 cells were plated in 96 wells with a density of 8×10^3 cells/well. […] After incubating for 30 min at 37° C., the plates were read on an Envision plate reader at 405 nm. Total protein was quantified with a BCA protein assay kit from Pierce according to manufacturer's instructions. […]

In data set [4] the test system is LuCaP35V (Castration Resistant) primary prostate cancer. Briefly: LuCaP35V castration resistant primary prostate cancer model. The format is in vivo. Particulars: docetaxel IV Q14D for 28 days, docetaxel+vehicle samples. The source says: The effects of IPI-926 were examined following docetaxel chemotherapy in a model of castration resistant prostate cancer. Prostate cancer is known to be a highly desmoplastic cancer, and one that preferentially metastasizes to bone. Sonic hedgehog ligand is expressed in clinical specimens and primary xenograft models. […] FIG. 7 summarizes the effects of IPI-926 in LuCaP35V (Castration Resistant) primary prostate cancer model. Days of docetaxel and IPI-926 administration are indicated by the arrowheads at the indicated days post-implant. The following samples were tested: Vehicle control (administered orally once a day), 40 mg/kg of IPI-926 (administered orally once a day), docetaxel (administered intravenously Q14D for 28 days), or docetaxel (administered intravenously Q14D for 28 days) followed by 40 mg/kg of IPI-926, as shown in FIG. 7. […] Thus, IPI-926 can be useful as maintenance therapy in prostate cancer.

Data set [5] has as its system Ptch1+/-; p53-/- medulloblastoma. Particulars: cited from earlier work.

With `COc1cccc2c1C(=O)c1c(O)c3c(c(O)c1C2=O)C[C@@](O)(C(=O)CO)C[C@@H]3O[C@H]1C[C@H](N)[C@H](O)[C@H](C)O1` [Doxorubicin], in data set [1], the “Sonic Hedgehog (SHH) ligand expression” value is on record as “increase in expression over time”.
On to `CS(=O)(=O)c1ccc(C(=O)Nc2ccc(Cl)c(-c3ccccn3)c2)c(Cl)c1` [GDC-0449], for which, in data set [2], the Pgp substrate result is “p-glycoprotein (Pgp) substrate”.
Regarding `Nc1ccn([C@@H]2O[C@H](CO)[C@@H](O)C2(F)F)c(=O)n1` [Gemcitabine], the “Sonic Hedgehog (SHH) ligand expression” value in data set [1] is listed as “increase in expression over time”.
On to `CC1=C2C[C@H]3[C@@H](CC[C@@H]4C[C@H](NS(C)(=O)=O)CC[C@@]43C)[C@@H]2CC[C@@]2(C1)O[C@@H]1C[C@H](C)CN[C@H]1[C@H]2C` [IPI-926 (HCl salt)], for which the IC50 in data set [3] is < 0.02 µM.
As to `CC(=O)O[C@@]12CO[C@@H]1C[C@H](O)[C@@]1(C)C(=O)[C@H](O)C3=C(C)[C@@H](OC(=O)[C@H](O)[C@@H](NC(=O)OC(C)(C)C)c4ccccc4)C[C@@](O)([C@@H](OC(=O)c4ccccc4)[C@H]21)C3(C)C` [docetaxel, reference compound], the “tumor volume after cessation of docetaxel” value in data set [4] is on record as “Tumor reoccurrence was detected”.
In the case of HhAntag, the survival vs vehicle entry in data set [5] (100 mg/kg, enrolled at 5 weeks of age) is reported as “survival benefit”. Also, the tumor mass result in data set [5] (2 weeks of twice daily 20 mg/kg or 100 mg/kg, enrolled at 3 weeks of age) is given as “substantial decrease in tumor mass”.
